Data on one molecule can be found in publication PMC11647725, “Discovery of 4-(5-Membered)Heteroarylether-6-methylpicolinamide Negative Allosteric Modulators of Metabotropic Glutamate Receptor Subtype 5” (ACS Medicinal Chemistry Letters, 2024).

For series [1], the target named is Transporter, Dopamine (DAT) (Homo sapiens, UniProt Q01959). Nature of the series: Lead Profiling Screen, Eurofins Panlabs. Format: binding. The conditions noted are these: hum, read-out: % inh at 10 μM.
The target of series [2] is T1, human mGlu2 (Homo sapiens, UniProt Q14416).
T1 construct: expressed in transfected cells
Nature of the series: mGlu selectivity, thallium flux GIRK assay. The class given is cell-based. As for the experimental part:
(§1) the presence of 5% CO2, the dye solutions were removed and replaced with assay buffer using a microplate washer, leaving 20 μL of assay buffer in the cell plate. The compound, agonist, and cell plates were placed inside the Functional Drug Screening System (FDSS 7000 or uCell, Hamamatsu, Japan) to measure the calcium flux. Assays were run at 37 °C. A triple add protocol was used to measure Ca kinetics. Briefly, after establishment of a fluorescence baseline for 2 seconds (excitation, 480 nm; emission, 530 nm), 20 µL of test compound was added to the cells and the response was measured for 140 seconds. This was followed by the addition of 10 µL (5X) of an EC20 concentration of Glu agonist, and the response of the cells was measured for 125 seconds. A third addition occurred by adding 12 uL (5X) of an EC80 concentration of Glu agonist and the response of the cells was measured for 90 seconds. […] Calcium fluorescence was recorded as fold over basal fluorescence and raw data were normalized to the maximal response to Glu agonist (ECMax). Compound-evoked decreases in calcium response in the presence of Glu EC80 agonist were determined as inhibition activity, and potency (IC50) and maximum inhibition responses (% GluMin) of compounds were determined using a four-parameter logistical equation using GraphPad Prism (La Jolla, CA) or the Dotmatics software platform (Woburn, MA) : […]
(§2) The mGlu subtype selectivity of compounds was determined using calcium mobilization or thallium flux GIRK (G protein-regulated inwardly rectifying K channel) assays using the stable cell lines expressing the respective mGlu receptors. […]
(§3) at RT using DL-AP4 for the agonist. mGlu8 cells were incubated with dye solution for 50 min at 37 °C in the presence of […] and FDSS assays were run at RT. To measure activity at mGlu2 and mGlu3, HEK293-GIRK cells stably expressing human mGlu2 and mGlu3 were assessed using thallium flux assay through GIRK channels as previously described in detail.3 […]

The target in series [3] is T2, human mGlu3 (Homo sapiens, UniProt Q14832).
T2 construct: expressed in transfected cells
Put plainly: mGlu selectivity, thallium flux GIRK assay. The class given is cell-based. On the procedure: as §1, §2, §3

Series [4] is described as follows: In vivo rat pharmacokinetics. Set-up: species or system Sprague–Dawley rat.
In series [5] the target is Nicotinic Acetylcholine α1, Bungarotoxin (Homo sapiens, UniProt P02708+P07510+Q07001). Nature of the series: biochemical. Format: binding. The settings on record: read-out: % inh at 10 μM.

pIC50: −log10 of the molar value.

T2 sequence (Q14832 23-879): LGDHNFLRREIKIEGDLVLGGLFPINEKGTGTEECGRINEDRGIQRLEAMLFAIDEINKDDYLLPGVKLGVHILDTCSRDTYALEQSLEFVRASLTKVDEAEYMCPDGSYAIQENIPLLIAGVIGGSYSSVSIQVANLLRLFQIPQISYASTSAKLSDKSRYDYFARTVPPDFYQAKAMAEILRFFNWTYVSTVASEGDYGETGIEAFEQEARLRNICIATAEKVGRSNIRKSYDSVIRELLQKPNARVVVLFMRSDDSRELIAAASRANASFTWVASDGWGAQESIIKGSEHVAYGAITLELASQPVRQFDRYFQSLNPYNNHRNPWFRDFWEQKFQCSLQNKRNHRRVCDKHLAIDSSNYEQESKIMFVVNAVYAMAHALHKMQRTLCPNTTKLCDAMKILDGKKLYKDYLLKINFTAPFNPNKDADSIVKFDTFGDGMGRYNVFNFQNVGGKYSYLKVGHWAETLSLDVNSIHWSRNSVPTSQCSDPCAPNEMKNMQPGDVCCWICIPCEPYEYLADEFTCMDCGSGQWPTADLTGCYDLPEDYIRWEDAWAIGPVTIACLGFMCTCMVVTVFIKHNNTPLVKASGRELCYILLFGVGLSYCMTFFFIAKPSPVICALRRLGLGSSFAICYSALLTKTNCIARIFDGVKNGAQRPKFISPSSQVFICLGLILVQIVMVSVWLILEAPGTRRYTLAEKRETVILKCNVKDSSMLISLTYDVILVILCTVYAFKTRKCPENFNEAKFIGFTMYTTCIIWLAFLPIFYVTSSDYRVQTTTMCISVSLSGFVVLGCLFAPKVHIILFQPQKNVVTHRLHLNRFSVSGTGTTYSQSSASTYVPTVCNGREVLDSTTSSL
Transporter, Dopamine (DAT), sequence (Q01959 whole entry): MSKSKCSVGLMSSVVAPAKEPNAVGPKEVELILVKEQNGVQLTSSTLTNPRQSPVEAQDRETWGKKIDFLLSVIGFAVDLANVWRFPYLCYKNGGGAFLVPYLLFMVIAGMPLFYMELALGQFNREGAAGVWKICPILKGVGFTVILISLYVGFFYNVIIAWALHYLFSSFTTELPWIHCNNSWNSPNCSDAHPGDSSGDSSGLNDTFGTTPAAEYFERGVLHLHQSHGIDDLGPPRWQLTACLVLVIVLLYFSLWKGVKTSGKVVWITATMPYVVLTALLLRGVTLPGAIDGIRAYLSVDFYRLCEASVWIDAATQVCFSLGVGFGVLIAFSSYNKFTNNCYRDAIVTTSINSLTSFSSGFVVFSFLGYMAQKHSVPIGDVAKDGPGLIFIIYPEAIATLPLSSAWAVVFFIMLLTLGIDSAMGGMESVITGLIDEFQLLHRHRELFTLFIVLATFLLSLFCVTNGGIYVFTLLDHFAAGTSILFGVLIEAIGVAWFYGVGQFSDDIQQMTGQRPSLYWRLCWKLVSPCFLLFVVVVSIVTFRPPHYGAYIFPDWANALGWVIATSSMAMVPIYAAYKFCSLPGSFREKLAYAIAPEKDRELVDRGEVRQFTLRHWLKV
T1 sequence (Q14416 19-872): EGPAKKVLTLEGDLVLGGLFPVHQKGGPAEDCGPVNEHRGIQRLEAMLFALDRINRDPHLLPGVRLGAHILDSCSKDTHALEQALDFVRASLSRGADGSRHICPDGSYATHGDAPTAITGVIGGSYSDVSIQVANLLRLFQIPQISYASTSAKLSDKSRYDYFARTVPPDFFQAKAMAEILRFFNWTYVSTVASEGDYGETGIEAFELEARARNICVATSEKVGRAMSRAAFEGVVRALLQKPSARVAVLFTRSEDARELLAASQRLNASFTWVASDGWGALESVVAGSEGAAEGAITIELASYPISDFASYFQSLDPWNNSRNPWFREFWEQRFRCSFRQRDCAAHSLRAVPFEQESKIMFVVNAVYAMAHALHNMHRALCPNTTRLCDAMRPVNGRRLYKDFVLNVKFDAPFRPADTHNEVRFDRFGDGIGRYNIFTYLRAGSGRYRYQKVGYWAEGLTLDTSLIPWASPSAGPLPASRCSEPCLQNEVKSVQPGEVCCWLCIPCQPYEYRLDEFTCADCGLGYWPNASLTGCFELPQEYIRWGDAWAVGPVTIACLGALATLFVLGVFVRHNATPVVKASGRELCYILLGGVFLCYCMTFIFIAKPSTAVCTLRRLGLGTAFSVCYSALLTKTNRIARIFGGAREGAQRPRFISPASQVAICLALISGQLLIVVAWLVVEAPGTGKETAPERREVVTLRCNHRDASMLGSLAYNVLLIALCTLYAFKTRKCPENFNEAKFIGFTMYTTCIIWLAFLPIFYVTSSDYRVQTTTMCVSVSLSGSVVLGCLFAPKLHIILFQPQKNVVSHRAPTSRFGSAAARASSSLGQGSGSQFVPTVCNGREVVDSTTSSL
Nicotinic Acetylcholine α1, Bungarotoxin, sequence (P07510 23-517): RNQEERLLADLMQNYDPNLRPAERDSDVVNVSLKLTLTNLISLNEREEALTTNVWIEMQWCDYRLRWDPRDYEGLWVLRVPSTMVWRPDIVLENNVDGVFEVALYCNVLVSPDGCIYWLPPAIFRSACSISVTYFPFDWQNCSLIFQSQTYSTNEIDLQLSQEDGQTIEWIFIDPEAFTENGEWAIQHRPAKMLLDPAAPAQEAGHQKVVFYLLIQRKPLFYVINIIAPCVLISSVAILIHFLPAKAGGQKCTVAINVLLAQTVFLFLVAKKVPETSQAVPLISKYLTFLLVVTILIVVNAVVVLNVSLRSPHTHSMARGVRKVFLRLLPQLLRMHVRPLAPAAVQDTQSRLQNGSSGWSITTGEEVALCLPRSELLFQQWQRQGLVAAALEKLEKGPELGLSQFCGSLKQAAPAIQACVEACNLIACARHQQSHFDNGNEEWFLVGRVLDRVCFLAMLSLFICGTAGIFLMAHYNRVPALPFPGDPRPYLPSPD
Nicotinic Acetylcholine α1, Bungarotoxin, sequence (P11230 24-501, further chain): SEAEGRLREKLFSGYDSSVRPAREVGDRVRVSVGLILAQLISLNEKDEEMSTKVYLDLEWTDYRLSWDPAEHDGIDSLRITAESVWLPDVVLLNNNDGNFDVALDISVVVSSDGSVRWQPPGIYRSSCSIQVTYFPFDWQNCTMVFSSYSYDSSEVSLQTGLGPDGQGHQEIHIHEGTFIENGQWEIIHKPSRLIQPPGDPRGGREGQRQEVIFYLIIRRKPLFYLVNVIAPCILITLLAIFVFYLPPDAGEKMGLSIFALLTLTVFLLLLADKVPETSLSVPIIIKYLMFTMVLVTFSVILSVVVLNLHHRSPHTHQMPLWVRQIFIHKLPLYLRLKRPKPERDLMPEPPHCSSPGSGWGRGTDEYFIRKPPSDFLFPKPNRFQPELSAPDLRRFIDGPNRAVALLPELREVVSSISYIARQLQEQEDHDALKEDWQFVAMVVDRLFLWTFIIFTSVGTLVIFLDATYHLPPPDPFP
Nicotinic Acetylcholine α1, Bungarotoxin, sequence (Q07001 22-517): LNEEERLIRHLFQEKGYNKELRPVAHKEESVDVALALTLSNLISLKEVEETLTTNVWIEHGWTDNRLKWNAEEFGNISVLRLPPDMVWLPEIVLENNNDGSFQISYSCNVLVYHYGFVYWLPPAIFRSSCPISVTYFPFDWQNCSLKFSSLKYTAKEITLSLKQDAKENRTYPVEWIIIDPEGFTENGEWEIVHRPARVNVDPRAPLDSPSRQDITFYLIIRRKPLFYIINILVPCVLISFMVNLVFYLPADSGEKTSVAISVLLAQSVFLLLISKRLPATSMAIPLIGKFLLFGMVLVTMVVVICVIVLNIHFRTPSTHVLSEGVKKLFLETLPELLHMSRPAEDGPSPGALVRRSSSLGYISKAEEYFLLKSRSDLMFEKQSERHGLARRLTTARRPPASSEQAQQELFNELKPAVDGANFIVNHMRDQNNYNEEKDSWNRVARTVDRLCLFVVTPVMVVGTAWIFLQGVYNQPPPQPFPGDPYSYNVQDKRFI
Nicotinic Acetylcholine α1, Bungarotoxin, sequence (P02708 21-457): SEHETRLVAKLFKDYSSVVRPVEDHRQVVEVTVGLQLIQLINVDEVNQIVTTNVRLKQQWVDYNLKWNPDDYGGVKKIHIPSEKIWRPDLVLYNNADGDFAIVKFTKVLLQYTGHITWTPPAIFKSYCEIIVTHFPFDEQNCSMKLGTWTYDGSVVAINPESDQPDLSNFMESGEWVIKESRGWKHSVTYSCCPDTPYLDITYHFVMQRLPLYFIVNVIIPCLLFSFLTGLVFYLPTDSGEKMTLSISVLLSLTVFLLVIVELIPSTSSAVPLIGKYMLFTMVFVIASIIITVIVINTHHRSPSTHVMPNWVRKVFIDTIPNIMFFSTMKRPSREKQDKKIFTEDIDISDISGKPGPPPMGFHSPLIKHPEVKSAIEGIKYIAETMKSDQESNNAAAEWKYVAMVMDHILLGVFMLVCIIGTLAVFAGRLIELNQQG

In general, pIC50 refers to −log10 of the IC50, conventionally taken in molar units. In general, MRT refers to the average time that molecules of a dose stay in the body. As a reminder, the Vss is the apparent volume that relates the amount in the body to the concentration in plasma or blood. Read a low Vss as confinement near the circulation. One may read the Cmax as the maximum level reached in the sampled fluid or tissue. As a reminder, the Tmax is the time at which the peak concentration occurs. By bioavailability is commonly meant dose-corrected exposure relative to a reference, in per cent. As to `Cc1cc(Oc2cnn(C)c2)cc(C(=O)Nc2ccc(F)cn2)n1` [22iA], in series [1], the inhibition at 10 µM stood at 25%. Further, the “IC50, human mGlu2” value in series [2] was “inactive”. For the same molecule, in series [3], the “%GluMin, human mGlu3” value is “[58] %” and the pIC50 is under 5.00. In series [4] (Rat (SD), IV 1.0 mg/kg), this molecule displayed a CLp of 41 mL/min/kg, an MRT of 50.4 min, a Vss of 2.0 L/kg and a t1/2 of 44.4 min. In series [4] (Rat (SD), PO 10.0 mg/kg), the “AUC0-∞” value came to 1320 ng·h/mL, the Cmax is listed as 402 ng/mL and the Tmax is 117 min. Besides, in series [4] (Rat (SD), PO 10.0 mg/kg, oral bioavailability), the “%F” value is on record as 43%. The half-life in series [4] (Sprague-Dawley, rat, plasma, intravenous, 1 mg/kg, rats, value as given in running text, read-out: elimination t1/2) was about 45 min. In series [4] (Sprague-Dawley, rat, plasma, po, 10 mg/kg), this molecule returned a bioavailability of 40%. Further, in series [5], the inhibition at 10 µM is -12%.
